Data: patent publication EP4603105A1, “PHARMACEUTICAL COMPOSITION CONTAINING CYCLIC COMPOUND HAVING SELECTIVE KRAS INHIBITORY EFFECT AGAINST HRAS AND NRAS” (CHUGAI SEIYAKU KABUSHIKI KAISHA, priority 2022, dated 2024)
*1 amine or outer side, *2 acyl side, *3 side chain or, on linkers, in order; H or OH if unused. Where a SMILES comes first, the peptide text is derived from it. Bridges are numbered along the chain shown (N, C = ends). [ ]: non-standard residue; d: D form. The star is where a group is joined. hPhe(3-Cl-4-CF3) = N[C@@H](CCc1ccc(C(F)(F)F)c(Cl)c1)C(=O)O; NPrPhe(4-CF3) = CCCN[C@@H](Cc1ccc(C(F)(F)F)cc1)C(=O)O; NEtAsp = CCN([C@@H](CC(=O)[*:3])C(=O)[*:2])[*:1]; NMeGly(cPent) = CN[C@H](C(=O)O)C1CCCC1; NMeL = CN[C@@H](CC(C)C)C(=O)O; Morpholide = C1CN(*)CCO1; Ac4c = NC1(C(=O)O)CCC1; Sar = CNCC(=O)O

Columns and labels:
[1] = molecular target: GDP-bound NRAS wild-type protein (Homo sapiens, UniProt P01111); test: Binding to NRAS by surface plasmon resonance (SPR), KD and KD ratio to KRAS
In short: (§1)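 Single-cycle kinetics on GDP-loaded biotin-Avi RAS captured to ~100–300 RU; 75 s ascending injections, 100 µL/min, 30°C. HBS pH 7.4 + 10 mM MgCl2/10 µM GDP/4% DMSO. 1:1 fit, KD.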

HRAS wild-type protein = HRAS wild-type protein (Homo sapiens, UniProt P01112); test: Binding to HRAS by surface plasmon resonance (SPR), KD and KD ratio to KRAS
In short: as §1

[2] = test system: human lung cancer strain NCI-H441; assay type: cell-based
In short: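 Proliferation was scored by […] measured after the reagent was added to cultures kept at 37°C in 5% carbon dioxide.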

[3] = ratio of KD value for GDP-bound NRAS wild-type protein to KD value for KRAS (SPR)
[4] = ratio of KD value for HRAS wild-type protein to KD value for KRAS (SPR)
[5] = ratio of KD for GDP-bound NRAS wild-type protein to KD for KRAS
[6] = ratio of KD for HRAS wild-type protein to KD for KRAS
[7] = ratio of the KD value with respect to GDP-bound NRAS wild-type protein to the KD value with respect to KRAS
[8] = ratio of the KD value with respect to HRAS wild-type protein to the KD value with respect to KRAS

Sequence of HRAS wild-type protein (P01112 whole entry): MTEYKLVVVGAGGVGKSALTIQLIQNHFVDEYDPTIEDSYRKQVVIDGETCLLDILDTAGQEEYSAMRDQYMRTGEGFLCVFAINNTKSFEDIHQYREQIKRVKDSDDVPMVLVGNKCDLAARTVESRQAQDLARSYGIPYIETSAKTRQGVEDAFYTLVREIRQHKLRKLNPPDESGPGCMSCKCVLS
Sequence of GDP-bound NRAS wild-type protein (P01111 whole entry): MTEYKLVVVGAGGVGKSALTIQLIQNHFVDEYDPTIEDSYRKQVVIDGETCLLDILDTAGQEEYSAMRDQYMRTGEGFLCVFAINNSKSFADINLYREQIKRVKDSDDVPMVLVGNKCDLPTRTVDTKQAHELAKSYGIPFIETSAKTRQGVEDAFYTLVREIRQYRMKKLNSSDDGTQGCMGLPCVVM

Row | IC50 [2] | Compound | NRAS /KRAS [1, 3] | HRAS /KRAS (HRAS wild-type protein; [4]) | NRAS /KRAS [1, 5] | HRAS /KRAS (HRAS wild-type protein; [6]) | NRAS /KRAS [1, 7] | HRAS /KRAS (HRAS wild-type protein; [8])
1 | 85.5 nM | CCO[C@@H]1C[C@H]2C(=O)NC3(CC(F)(F)C3)C(=O)N(C)[C@@H](C3CCCC3)C(=O)N(C)C(C3CCCCC3)CC(=O)N(C)[C@@H](COC)C(=O)N[C@@H]([C@@H](C)CC)C(=O)N(C)CC(=O)N(C)[C@H]3C/C=C\CCN(C3=O)[C@@H](Cc3ccc(C(F)(F)F)cc3)C(=O)N(C)CC(=O)N[C@@H](CCc3cc(F)c(C(F)(F)F)c(F)c3)C(=O)N2C1 (stereo partly drawn) [PP1586] | A (a compound having 10 or more and less than 20 is denoted as A) | A (a compound having 10 or more and less than 20 is denoted as A) | – | – | – | –
2 | 16.7 nM | CC[C@H](C)[C@@H]1NC(=O)[C@H](CC(C)C)N(C)C(=O)C[C@@H](C(=O)N2CCOCC2)N(C)C(=O)[C@H](C2CCCC2)N(C)C(=O)C2(CCC2)NC(=O)[C@]2(C)CCCN2C(=O)[C@H](CCc2cc(F)c(C(F)(F)F)c(F)c2)NC(=O)CN(C)C(=O)[C@H](Cc2ccc(C(F)(F)F)cc2)N2CCCC[C@@H](C2=O)N(C)C(=O)CN(C)C1=O [PP0808] | – | – | B (a compound having 3 or more and less than 10 is denoted as B) | B (a compound having 3 or more and less than 10 is denoted as B) | – | –
3 | 100 nM | CCC[C@H]1C(=O)N[C@@H]([C@@H](C)CC)C(=O)N(C)CC(=O)N(C)[C@H]2C/C=C\CCN(C2=O)[C@@H](Cc2ccc(C(F)(F)F)cc2)C(=O)N(C)CC(=O)N[C@@H](CCc2ccc(Cl)c(Cl)c2)C(=O)N2C[C@H](OCC)C[C@H]2C(=O)NC2(CC(C)(C)C2)C(=O)N(C)[C@@H](CC2CC2)C(=O)N(C)[C@H](C(=O)N(C)C)CC(=O)N1C [PP2811] | – | – | A (a compound having 10 or more and less than 20 is denoted as A) | A (a compound having 10 or more and less than 20 is denoted as A) | – | –
4 | 22.9 nM | CCO[C@@H]1C[C@H]2C(=O)NC3(CC(F)(F)C3)C(=O)N(C)[C@@H](C3CCCC3)C(=O)N(C)[C@H](CC)CC(=O)N(C)[C@@H](CC)C(=O)N[C@@H]([C@@H](C)CC)C(=O)N(C)CC(=O)N(C)[C@H]3C/C=C\CCN(C3=O)[C@@H](Cc3ccc(C(F)(F)F)cc3)C(=O)N(C)CC(=O)N[C@@H](CCc3cc(F)c(C(F)(F)F)c(F)c3)C(=O)N2C1 [PP1627] | A (a compound having 10 or more and less than 20 is denoted as A) | A (a compound having 10 or more and less than 20 is denoted as A) | – | – | – | –
5 | 5.4 nM | CCO[C@@H]1C[C@H]2C(=O)N(C)C3(CCC3)C(=O)N(C)[C@@H](C3CCCC3)C(=O)N(C)[C@H](C(=O)N(C)C)CC(=O)N(C)[C@@H](CC)C(=O)N[C@@H]([C@@H](C)CC)C(=O)N(C)CC(=O)N(C)[C@H]3C/C=C\CCN(C3=O)[C@@H](Cc3ccc(C(F)(F)F)cc3)C(=O)N(C)CC(=O)N[C@@H](CCc3cc(F)c(C(F)(F)F)c(F)c3)C(=O)N2C1 [PP1779] | A (a compound having 10 or more and less than 20 is denoted as A) | B (a compound having 3 or more and less than 10 is denoted as B) | – | – | – | –
6 | 26.3 nM | CC[C@H](C)[C@@H]1NC(=O)[C@H](CC(C)C)N(C)C(=O)C[C@@H](C(=O)N2CCOCC2)N(C)C(=O)[C@H](C2CCCC2)N(C)C(=O)C2(CCCC2)NC(=O)[C@@H]2CCCN2C(=O)[C@H](CCc2ccc(C(F)(F)F)c(Cl)c2)NC(=O)CN(C)C(=O)[C@H](Cc2ccc(C(F)(F)F)cc2)N2CC/C=C\C[C@@H](C2=O)N(C)C(=O)CN(C)C1=O [PP0463] | – | – | – | – | A (a compound having 10 or more and less than 20 is denoted as A) | A (a compound having 10 or more and less than 20 is denoted as A)
7 | 20.9 nM | CC[C@H](C)[C@@H]1NC(=O)[C@H](CC(C)C)N(C)C(=O)C[C@@H](C(=O)N2CCOCC2)N(C)C(=O)[C@H](C2CCCC2)N(C)C(=O)C2(CCCCC2)NC(=O)[C@@H]2CCCN2C(=O)[C@H](CCc2cc(F)c(C(F)(F)F)c(F)c2)NC(=O)CN(C)C(=O)[C@H](Cc2ccc(C(F)(F)F)cc2)N2CCCC[C@@H](C2=O)N(C)C(=O)CN(C)C1=O [PP0561] | – | – | – | – | B (a compound having 3 or more and less than 10 is denoted as B) | B (a compound having 3 or more and less than 10 is denoted as B)
8 | 121 nM | CC[C@H](C)[C@@H]1NC(=O)[C@H](CC)N(C)C(=O)C[C@@H](C(=O)N(C)C)N(C)C(=O)[C@H](C2CCCC2)N(C)C(=O)C2(CCC2)NC(=O)[C@@H]2C[C@H](OC)CN2C(=O)[C@H](CCc2cc(F)c(C(F)(F)F)c(F)c2)NC(=O)CN(C)C(=O)[C@H](Cc2ccc(C(F)(F)F)cc2)N2CC/C=C\C[C@@H](C2=O)N(C)C(=O)CN(C)C1=O [PP1128] | – | – | AA (a compound having 20 or more is denoted as AA) | A (a compound having 10 or more and less than 20 is denoted as A) | – | –
9 | 32.5 nM | CCO[C@@H]1C[C@H]2C(=O)NC3(CCC3)C(=O)N(C)[C@@H](C3CCCC3)C(=O)N(C)[C@H](C3CCC3)CC(=O)N(C)[C@@H](CC3CC3)C(=O)N[C@@H]([C@@H](C)CC)C(=O)N(C)CC(=O)N(C)[C@H]3C/C=C\CCN(C3=O)[C@@H](Cc3ccc(C(F)(F)F)cc3)C(=O)N(C)CC(=O)N[C@@H](CCc3cc(F)c(C(F)(F)F)c(F)c3)C(=O)N2C1 [PP1637] | A (a compound having 10 or more and less than 20 is denoted as A) | A (a compound having 10 or more and less than 20 is denoted as A) | – | – | – | –
10 | 8.7 nM | CCCN1C(=O)CN(C)C(=O)CN(C)C(=O)[C@H]([C@@H](C)CC)NC(=O)[C@H](CC(C)C)N(C)C(=O)C[C@@H](C(=O)N2CCOCC2)N(CC)C(=O)[C@H](C2CCCC2)N(C)C(=O)C2(CCC2)NC(=O)[C@@H]2CCCN2C(=O)[C@H](CCc2ccc(C(F)(F)F)c(Cl)c2)NC(=O)CN(C)C(=O)[C@@H]1Cc1ccc(C(F)(F)F)cc1 [PP1953] ([NMeL]I[Sar][Sar][NPrPhe(4-CF3)][Sar][hPhe(3-Cl-4-CF3)]P[Ac4c][NMeGly(cPent)][NEtAsp]-Morpholide; lactam N-11) | – | – | – | – | B (a compound having 3 or more and less than 10 is denoted as B) | B (a compound having 3 or more and less than 10 is denoted as B)
11 | 105 nM | CCO[C@@H]1C[C@H]2C(=O)NC3(CCC3)C(=O)N(C)[C@@H](C3CCCC3)C(=O)N(C)[C@H](C(=O)N(C)C)CC(=O)N(C)[C@@H](CC)C(=O)N[C@@H]([C@@H](C)CC)C(=O)N(C)CC(=O)N(C)[C@H]3C/C=C\CCN(C3=O)[C@@H](Cc3ccc(C(F)(F)F)cc3)C(=O)N(C)CC(=O)N[C@@H](CCc3cc(C)c(Cl)c(C)c3)C(=O)N2C1 [PP1821] | A (a compound having 10 or more and less than 20 is denoted as A) | A (a compound having 10 or more and less than 20 is denoted as A) | – | – | – | –
12 | 590 nM | CC[C@H](C)[C@@H]1NC(=O)[C@H](CC(C)C)N(C)C(=O)C[C@@H](C(=O)N2CCOCC2)N(C)C(=O)[C@H](C2CCCC2)N(C)C(=O)C2(CCC2)NC(=O)[C@@H]2[C@H](OC)CCN2C(=O)[C@H](CCc2cc(F)c(C(F)(F)F)c(F)c2)NC(=O)CN(C)C(=O)[C@H](Cc2ccc(C(F)(F)F)cc2)N2CCCCC[C@@H](C2=O)N(C)C(=O)CN(C)C1=O [PP1085] | – | – | A (a compound having 10 or more and less than 20 is denoted as A) | A (a compound having 10 or more and less than 20 is denoted as A) | – | –
